According to patent publication US20220372585A1, “Sensors for Aromatic Compounds and Methods of Making and Using Same” (Washington University, priority 2021, published 2022):

What was measured:
WT TrpR = target: T1, WT TrpR (Escherichia coli, UniProt P0A881); test: WT TrpR system, repression of GFP expression; type: cell-based, E. coli
T1 construct: trpR (WT); expressed in transfected cells; host or cells: E. coli Nissle 1917 (EcN), genomic trpR knocked out; plasmid pMBA035 (P17-trpR)
Description: Among the various aspects of the present disclosure is the provision of systems and methods for detecting aromatic compounds. An aspect of the present disclosure provides for a method of protein engineering (e.g., a regulator protein) comprising: mutagenizing specific amino acids in and around a ligand-binding site of a protein, wherein the mutagenizing enables changes in ligand-protein binding specificity while maintaining protein-DNA interaction and thus downstream gene expression control; and/or linking ligand-protein binding to output response. An aspect of the present disclosure provides for an engineered molecular sensor. […] In some embodiments, the engineered regulator protein or the ligand-protein binding site or a sequence encoding the engineered regulator protein or the ligand-protein binding site of the engineered regulator protein is at least about 80% identical to a WT regulator protein or a WT regulator ligand-protein binding site; or a sequence encoding the engineered regulator protein or ligand binding site thereof is at least about 80% identical to a sequence encoding the WT regulator protein or the WT regulator ligand-protein binding site; or functional fragment thereof, the engineered regulator protein having ligand binding activity. In some embodiments, the engineered molecular sensor is optionally genomically integrated into a microorganism, optionally selected from a probiotic or is a purified cell-free sensor. In some embodiments, the engineered regulator protein or enzyme is an engineered TrpR, TyrR, TynA, or FeaR protein. […] In some embodiments, the engineered regulator protein is an engineered TrpR and is a tryptophan (Trp)-, 5-hydroxytryptophan (5-HTP)-, or tryptamine (Trpta)-specific sensor. In some embodiments, the engineered regulator protein or enzyme is an engineered TrpR, TyrR, TynA, or FeaR, and/or wherein the engineered TrpR, TyrR, TynA, or FeaR comprises at least one mutation to a ligand-protein binding site having specific amino acid binding activity. […]

[1] = system: wild-type TynA with W110S FeaR; type: cell-based, E. coli MG1655; conditions: W110S FeaR; 24 h; FIG. 28C
Method: (§1) Flow cytometry was performed as previously described. […] Cytometry data was gated by forward and side scatter.

[2] = system: wild-type TynA with M83Q FeaR; type: cell-based, E. coli MG1655; conditions: M83Q FeaR; 24 h; FIG. 28A
Method: as §1

[3] = system: wild-type TynA with W110C FeaR; type: cell-based, E. coli MG1655; conditions: W110C FeaR; 24 h; FIG. 28D
Method: as §1

[4] = system: wild-type TynA with L108T FeaR; type: cell-based, E. coli MG1655; conditions: L108T FeaR; 24 h; FIG. 28B
Method: as §1

[5] = system: sensor systems containing FeaR-KA; test: GFP fluorescence from PtynA in part-swapped sensor systems containing FeaR-KA; type: cell-based, Klebsiella aerogenes; conditions: 0.5 mM, 24 h, FIG. 31
Description: FIG. 31. […] PtynA from MG or KP/KA was regulated by TynA from MG or KP and FeaR from MG or KA. […] Values and error bars are the average and standard deviation of biological triplicate, respectively.
Tryptamine specific biosensors were first designed by genetic parts swapping. Three types of tynA and feaR genes from E. coli K-12 MG1655 (MG), Klebsiella aerogenes (KA), and Klebsiella pneumoniae (KP), and two types of PtynA sequences were chosen and tested in 18 different combinations (see e.g., FIG. 30). PtynA-KP/KA was constructed by replacing the FeaR binding sites of PtynA-MG with those from Klebsiella species.
Moreover, a Tryptamine specific variant I109N was discovered using a sensor system with PtynA-MG, TynA-KP and FeaR-KA as the wild type (VVT) for further directed evolution (see e.g., FIG. 32). […] Transfer curves for the tryptamine-specific FeaR-KA I109N sensor after 5 or 24 hours of induction further illustrate the specificity of the sensor for tryptamine (see e.g., FIG. 33A-FIG. 33B).

For NCCc1c[nH]c2ccccc12 [Tryptamine, tryptamine], the “fold repression of GFP expression” value (WT TrpR) was 7 fold, the response [1] was “lack of response” and the response [2] was “lack of response”. The response [3] was “lack of response”, the response [4] was “lack of response” and the fluorescence intensity [5] was “significant enhancement of fluorescence intensity”.
